Measured values: patent EP0877740B1, “THIOL DERIVATIVES WITH METALLOPEPTIDASE INHIBITORY ACTIVITY” (ZAMBON GROUP S.p.A., priority 1995, dated 1997)
Like-named read-outs stand apart in the source and are kept apart here.

Experiments:
ACE = target: T1, ACE (Rattus norvegicus, UniProt P47820); experiment: Ex vivo ACE-inhibitory activity in lung homogenates of treated SHR (radiometric, [3H]Hyp-Gly-Gly); design: species or system spontaneously hypertensive rats (SHR); conditions: SHR lungs, oral 30 µmoles/kg
T1 construct: After the removal of the lungs from SHR, the lung tissue was homogenized; from tissue; host or cells: lung homogenate of spontaneously hypertensive rats (SHR)
T1 sequence (P47820 36-1313): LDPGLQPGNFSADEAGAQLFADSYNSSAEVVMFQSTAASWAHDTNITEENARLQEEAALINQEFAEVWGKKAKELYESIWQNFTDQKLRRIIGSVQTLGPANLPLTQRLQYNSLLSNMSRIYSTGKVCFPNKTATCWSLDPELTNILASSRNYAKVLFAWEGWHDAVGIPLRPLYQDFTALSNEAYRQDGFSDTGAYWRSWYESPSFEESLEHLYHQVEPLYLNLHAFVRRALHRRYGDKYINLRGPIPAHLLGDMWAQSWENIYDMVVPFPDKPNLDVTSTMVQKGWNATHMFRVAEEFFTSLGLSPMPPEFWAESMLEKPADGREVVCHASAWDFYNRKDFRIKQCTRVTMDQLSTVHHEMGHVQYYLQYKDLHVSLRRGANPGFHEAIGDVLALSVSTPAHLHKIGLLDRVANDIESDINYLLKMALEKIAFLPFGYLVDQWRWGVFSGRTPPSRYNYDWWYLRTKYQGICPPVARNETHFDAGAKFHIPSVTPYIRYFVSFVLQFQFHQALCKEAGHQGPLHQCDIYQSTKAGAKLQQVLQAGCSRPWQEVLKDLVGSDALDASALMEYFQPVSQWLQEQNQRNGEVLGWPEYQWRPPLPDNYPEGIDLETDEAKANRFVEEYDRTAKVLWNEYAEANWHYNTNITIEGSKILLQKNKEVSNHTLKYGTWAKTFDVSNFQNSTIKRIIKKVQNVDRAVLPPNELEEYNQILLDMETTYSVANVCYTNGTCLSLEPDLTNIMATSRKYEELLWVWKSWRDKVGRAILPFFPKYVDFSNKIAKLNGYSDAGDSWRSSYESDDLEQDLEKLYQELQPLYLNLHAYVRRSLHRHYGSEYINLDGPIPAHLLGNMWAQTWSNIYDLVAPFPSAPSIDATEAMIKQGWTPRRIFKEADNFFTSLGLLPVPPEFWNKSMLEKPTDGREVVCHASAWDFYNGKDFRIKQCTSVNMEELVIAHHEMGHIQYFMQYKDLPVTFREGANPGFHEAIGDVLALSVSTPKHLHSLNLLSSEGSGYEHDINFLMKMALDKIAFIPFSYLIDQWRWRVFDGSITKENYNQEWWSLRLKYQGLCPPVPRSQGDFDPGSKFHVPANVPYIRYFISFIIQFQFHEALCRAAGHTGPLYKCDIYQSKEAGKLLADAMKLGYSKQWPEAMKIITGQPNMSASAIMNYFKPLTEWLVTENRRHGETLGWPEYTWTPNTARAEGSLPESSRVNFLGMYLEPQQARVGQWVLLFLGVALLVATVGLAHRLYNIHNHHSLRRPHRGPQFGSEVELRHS
Procedure: (§1) The ex-vivo ACE/NEP-inhibitory activity, in particular, was determined by evaluating the enzymatic activity in tissue homogenates (lung and kidney for ACE and NEP activity, respectively) from spontaneously hypertensive rats (SHR) treated with the tested compounds by intravenous or oral route.
The ex vivo ACE-inhibitory activity was evaluated by using a radiometric assay method, as reported in the literature by J. W. Ryan et al. in Biochem. J. (1977), 167, 501-504.
The inhibitory activity of the compounds of formula I was evaluated in lungs of spontaneously hypertensive rats (SHR), 5 minutes after i.v. injection (0.6 and 21 µmoles/kg) and 30 minutes, 60 minutes and 4 hours after oral administration (30 µmoles/kg) of the tested compounds.
After the removal of the lungs from SHR, the lung tissue was homogenized and incubated for 2 hours at 37°C in the presence of [^3H]Hyp-Gly-Gly, as a substrate.
The reaction was stopped by adding hydrochloric acid.
The released radiolabelled hyppuric acid was extracted with ethyl acetate and counted by liquid scintillation spectrometry, according to conventional methods.
The ACE-inhibitory activity of the tested compounds was expressed as percentage of ACE-inhibition in SHR lungs.

NEP = target: T2, NEP (Rattus norvegicus, UniProt P07861); experiment: Ex vivo NEP-inhibitory activity in kidney homogenates of treated SHR (GAAP substrate); design: After the removal of the kidneys from SHR, the renal tissue was homogenized; from tissue; host or cells: kidney homogenate of spontaneously hypertensive rats (SHR); species or system spontaneously hypertensive rats (SHR); conditions: oral 30 µmoles/kg; for inhibition at 30 µmol/kg: rat, SHR kidneys
T2 sequence (P07861 1-750): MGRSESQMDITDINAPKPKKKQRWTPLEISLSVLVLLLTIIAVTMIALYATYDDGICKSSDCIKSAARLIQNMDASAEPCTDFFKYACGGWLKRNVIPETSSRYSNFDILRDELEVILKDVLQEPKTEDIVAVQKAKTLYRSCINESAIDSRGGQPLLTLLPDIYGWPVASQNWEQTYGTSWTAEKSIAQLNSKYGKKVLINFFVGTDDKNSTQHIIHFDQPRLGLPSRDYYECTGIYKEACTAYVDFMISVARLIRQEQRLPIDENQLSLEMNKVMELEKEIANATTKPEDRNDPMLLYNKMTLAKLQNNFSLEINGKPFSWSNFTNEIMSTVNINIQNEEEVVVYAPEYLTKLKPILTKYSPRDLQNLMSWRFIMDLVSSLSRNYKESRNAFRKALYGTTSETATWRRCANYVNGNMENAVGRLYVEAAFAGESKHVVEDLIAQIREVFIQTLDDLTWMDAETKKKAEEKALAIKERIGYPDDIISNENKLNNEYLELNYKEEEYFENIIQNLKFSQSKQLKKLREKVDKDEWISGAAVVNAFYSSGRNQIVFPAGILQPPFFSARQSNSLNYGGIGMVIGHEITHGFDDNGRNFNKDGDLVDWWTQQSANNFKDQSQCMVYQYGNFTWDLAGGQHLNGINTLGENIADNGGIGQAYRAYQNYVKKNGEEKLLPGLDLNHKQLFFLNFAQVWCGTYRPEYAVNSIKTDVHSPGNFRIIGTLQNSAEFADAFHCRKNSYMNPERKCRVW
Procedure: as §1
The ex vivo NEP-inhibitory activity was evaluated according to the procedure reported in the literature by M. Orlowsky et al., in Biochemistry 1981, 20, 4942-4950.
The inhibitory activity of the compounds of formula I was evaluated in kidneys of spontaneously hypertensive rats (SHR), 5 minutes after i.v. injection (0.6 and 21 µmoles/kg) and 30 minutes, 60 minutes and 4 hours after oral administration (30 µmoles/kg) of the tested compounds.
After the removal of the kidneys from SHR, the renal tissue was homogenized and incubated for 15 minutes at 37°C in the presence of Glutaryl-Ala-Ala-Phe-2-naphthylamide (GAAP), as a substrate, and aminopeptidase M at pH 7.6.
The reaction was stopped by adding an aqueous solution at 10% of trichloroacetic acid.
The released 2-naphthylamine was determined by adding fast garnet dye (2 ml).
Enzyme reaction rates were determined by measuring the increase in the optical density at 524 nm (OD524) with respect to a standard obtained with 2-naphthylamine complexed with fast garnet.
The NEP-inhibitory activity of the tested compounds was expressed as percentage of NEP-inhibition in SHR kidneys.

[1] = 30 minutes after administration, read-out: ACE-inhibition (lungs) 30 minutes
[2] = 4 hours after administration, read-out: ACE-inhibition (lungs) 4 hours
[3] = 30 minutes after administration, read-out: NEP-inhibition (kidneys) 30 minutes

| inhibition at 30 µmol/kg (ACE; [1]) [%] | inhibition at 30 µmol/kg (ACE; [2]) [%] | NEP-inhibition (kidneys) 4 hours (NEP; 4 hours after administration) | inhibition at 30 µmol/kg (NEP; [3]) [%] | inhibition at 30 µmol/kg (NEP; 4 hours after administration, read-out: NEP-inhibition (kidneys) 4 hours) [%] | NEP-inhibition (kidneys) 30 minutes (NEP; 30 minutes after administration) | Structure (SMILES) |
| --- | --- | --- | --- | --- | --- | --- |
| 25 | 20 | not active | 5 | – | – | O=C(N[C@@H](Cc1ccccc1)C(=O)O)C(CS)Cc1ccc2c(c1)OCO2 (stereo partly drawn) [Compound R-1, N-[3-mercapto-2-(3,4-methylenedioxyphenyl)methyl-propionyl]-(S)-phenylalanine] |
| 30 | 25 | not active | 30 | – | – | O=C(N[C@@H](Cc1ccc(O)cc1)C(=O)O)C(CS)Cc1ccc2c(c1)OCO2 (stereo partly drawn) [Compound R-2, N-[3-mercapto-2-(3,4-methylenedioxyphenyl)methyl-propionyl)-(S)-tyrosine] |
| 25 | 20 | – | 10 | 5 | – | CC(CS)C(=O)N[C@@H](Cc1ccc(O)cc1)C(=O)O (stereo partly drawn) [Compound R-3, N-(3-mercapto-2-methylpropanoyl)-L-tyrosine] |
| 25 | 10 | not active | – | – | not active | CC(CS)C(=O)N[C@@H](Cc1c[nH]c2ccccc12)C(=O)O (stereo partly drawn) [Compound R-4, N-(3-mercapto-2-methylpropanoyl)-L-triptophan] |
